Test results reported in ChEMBL document CHEMBL4507276 (2021).

Columns and labels:
[1] = biological target: T1, 5-hydroxytryptamine receptor 2C (Homo sapiens) (UniProt P28335); test: 5HT2CH_AGON Cerep selectivity data (BI); details: filed as agonist, Compound concentration 20.0 uM
T1 sequence (whole entry): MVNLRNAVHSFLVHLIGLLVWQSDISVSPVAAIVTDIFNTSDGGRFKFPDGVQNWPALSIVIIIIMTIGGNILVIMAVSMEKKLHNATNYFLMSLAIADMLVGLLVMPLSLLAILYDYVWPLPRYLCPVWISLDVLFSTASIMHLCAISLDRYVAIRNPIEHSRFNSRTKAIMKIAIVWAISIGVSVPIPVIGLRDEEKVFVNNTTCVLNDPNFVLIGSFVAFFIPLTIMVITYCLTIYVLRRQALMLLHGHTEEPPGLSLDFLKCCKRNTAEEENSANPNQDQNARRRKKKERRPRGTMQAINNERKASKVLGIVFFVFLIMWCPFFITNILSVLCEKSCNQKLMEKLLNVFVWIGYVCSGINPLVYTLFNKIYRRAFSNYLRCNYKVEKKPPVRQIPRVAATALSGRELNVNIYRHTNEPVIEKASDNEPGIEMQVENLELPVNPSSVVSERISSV

[2] = biological target: Mitogen-activated protein kinase 10 (Homo sapiens) (UniProt P53779); test: MAPK10 Invitrogen selectivity data (BI); details: Compound concentration 3.0 uM
Mitogen-activated protein kinase 10 (Homo sapiens), sequence (P53779 whole entry): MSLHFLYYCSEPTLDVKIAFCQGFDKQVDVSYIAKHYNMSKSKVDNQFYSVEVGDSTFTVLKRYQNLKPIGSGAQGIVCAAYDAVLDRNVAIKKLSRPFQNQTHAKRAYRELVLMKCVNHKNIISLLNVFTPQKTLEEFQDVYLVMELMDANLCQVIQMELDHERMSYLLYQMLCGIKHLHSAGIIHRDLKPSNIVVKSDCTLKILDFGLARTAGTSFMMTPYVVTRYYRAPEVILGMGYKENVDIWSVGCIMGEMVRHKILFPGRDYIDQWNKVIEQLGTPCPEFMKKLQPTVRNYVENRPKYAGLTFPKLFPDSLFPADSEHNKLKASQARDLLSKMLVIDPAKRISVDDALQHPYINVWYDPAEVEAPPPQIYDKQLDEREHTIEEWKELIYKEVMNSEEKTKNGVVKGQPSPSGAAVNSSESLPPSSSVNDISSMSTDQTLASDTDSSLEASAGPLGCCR

[3] = biological target: 5-hydroxytryptamine receptor 1B (Rattus norvegicus) (UniProt P28564); test: 5HT1B/R Cerep selectivity data (BI); details: Compound concentration 20.0 uM
5-hydroxytryptamine receptor 1B (Rattus norvegicus), sequence (P28564 whole entry): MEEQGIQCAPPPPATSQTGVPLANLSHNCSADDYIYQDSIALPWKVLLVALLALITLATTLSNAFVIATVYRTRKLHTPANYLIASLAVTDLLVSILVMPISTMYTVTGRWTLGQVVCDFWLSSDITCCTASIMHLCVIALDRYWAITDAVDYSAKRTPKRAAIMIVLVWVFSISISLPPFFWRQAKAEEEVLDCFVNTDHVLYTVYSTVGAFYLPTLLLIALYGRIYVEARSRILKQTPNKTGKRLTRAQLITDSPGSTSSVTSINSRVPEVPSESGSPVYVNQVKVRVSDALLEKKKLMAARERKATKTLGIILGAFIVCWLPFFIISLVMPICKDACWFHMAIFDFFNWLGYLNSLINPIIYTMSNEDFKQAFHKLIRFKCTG

[4] = biological target: Endothelin receptor type B (Homo sapiens) (UniProt P24530); test: ETB/HUM Eurofins-Panlabs selectivity data (BI); details: Compound concentration 10.0 uM
Endothelin receptor type B (Homo sapiens), sequence (P24530 whole entry): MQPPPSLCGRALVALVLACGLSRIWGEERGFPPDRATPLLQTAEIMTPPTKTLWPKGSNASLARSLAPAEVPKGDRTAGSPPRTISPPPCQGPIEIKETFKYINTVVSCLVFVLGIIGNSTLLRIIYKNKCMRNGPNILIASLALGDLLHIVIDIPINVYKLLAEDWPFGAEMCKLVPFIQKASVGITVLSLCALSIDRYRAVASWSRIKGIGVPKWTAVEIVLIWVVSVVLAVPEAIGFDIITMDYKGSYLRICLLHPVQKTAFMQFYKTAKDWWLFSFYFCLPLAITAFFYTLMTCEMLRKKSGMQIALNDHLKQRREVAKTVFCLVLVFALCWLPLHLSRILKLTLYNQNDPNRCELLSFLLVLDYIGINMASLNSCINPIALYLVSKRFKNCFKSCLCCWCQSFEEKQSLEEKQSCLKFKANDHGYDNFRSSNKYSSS

[5] = biological target: Glycogen synthase kinase-3 beta (Homo sapiens) (UniProt P49841); test: GSK3B Invitrogen selectivity data (BI); details: Compound concentration 3.0 uM
Glycogen synthase kinase-3 beta (Homo sapiens), sequence (P49841 whole entry, looked up): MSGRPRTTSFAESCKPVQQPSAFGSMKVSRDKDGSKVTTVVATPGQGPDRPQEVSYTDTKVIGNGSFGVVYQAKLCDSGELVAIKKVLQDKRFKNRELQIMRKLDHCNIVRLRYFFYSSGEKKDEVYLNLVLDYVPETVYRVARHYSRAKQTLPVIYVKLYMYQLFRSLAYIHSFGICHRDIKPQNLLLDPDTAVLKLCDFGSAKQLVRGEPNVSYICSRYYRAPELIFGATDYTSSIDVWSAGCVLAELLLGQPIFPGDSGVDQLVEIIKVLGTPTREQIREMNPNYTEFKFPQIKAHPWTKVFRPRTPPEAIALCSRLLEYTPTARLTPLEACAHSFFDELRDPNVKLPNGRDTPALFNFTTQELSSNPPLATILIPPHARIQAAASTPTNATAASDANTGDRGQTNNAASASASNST

[6] = biological target: MAP kinase-activated protein kinase 2 (Homo sapiens) (UniProt P49137); test: MAPKAPK2 Invitrogen selectivity data (BI); details: Compound concentration 3.0 uM
MAP kinase-activated protein kinase 2 (Homo sapiens), sequence (P49137 whole entry, looked up): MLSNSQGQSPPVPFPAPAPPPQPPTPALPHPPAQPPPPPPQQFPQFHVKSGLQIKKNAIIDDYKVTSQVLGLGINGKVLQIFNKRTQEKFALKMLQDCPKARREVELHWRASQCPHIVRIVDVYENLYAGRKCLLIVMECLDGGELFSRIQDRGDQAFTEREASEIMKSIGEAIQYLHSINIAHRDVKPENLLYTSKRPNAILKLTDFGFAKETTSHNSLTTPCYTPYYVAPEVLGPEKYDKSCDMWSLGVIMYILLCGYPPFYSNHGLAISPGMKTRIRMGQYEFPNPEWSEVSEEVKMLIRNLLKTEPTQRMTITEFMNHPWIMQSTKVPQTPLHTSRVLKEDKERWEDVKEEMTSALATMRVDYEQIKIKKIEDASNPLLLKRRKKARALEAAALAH

[7] = biological target: High affinity nerve growth factor receptor (Homo sapiens) (UniProt P04629); test: NTRK1 Invitrogen selectivity data (BI); details: Compound concentration 3.0 uM
High affinity nerve growth factor receptor (Homo sapiens), sequence (P04629 33-796 limits assumed): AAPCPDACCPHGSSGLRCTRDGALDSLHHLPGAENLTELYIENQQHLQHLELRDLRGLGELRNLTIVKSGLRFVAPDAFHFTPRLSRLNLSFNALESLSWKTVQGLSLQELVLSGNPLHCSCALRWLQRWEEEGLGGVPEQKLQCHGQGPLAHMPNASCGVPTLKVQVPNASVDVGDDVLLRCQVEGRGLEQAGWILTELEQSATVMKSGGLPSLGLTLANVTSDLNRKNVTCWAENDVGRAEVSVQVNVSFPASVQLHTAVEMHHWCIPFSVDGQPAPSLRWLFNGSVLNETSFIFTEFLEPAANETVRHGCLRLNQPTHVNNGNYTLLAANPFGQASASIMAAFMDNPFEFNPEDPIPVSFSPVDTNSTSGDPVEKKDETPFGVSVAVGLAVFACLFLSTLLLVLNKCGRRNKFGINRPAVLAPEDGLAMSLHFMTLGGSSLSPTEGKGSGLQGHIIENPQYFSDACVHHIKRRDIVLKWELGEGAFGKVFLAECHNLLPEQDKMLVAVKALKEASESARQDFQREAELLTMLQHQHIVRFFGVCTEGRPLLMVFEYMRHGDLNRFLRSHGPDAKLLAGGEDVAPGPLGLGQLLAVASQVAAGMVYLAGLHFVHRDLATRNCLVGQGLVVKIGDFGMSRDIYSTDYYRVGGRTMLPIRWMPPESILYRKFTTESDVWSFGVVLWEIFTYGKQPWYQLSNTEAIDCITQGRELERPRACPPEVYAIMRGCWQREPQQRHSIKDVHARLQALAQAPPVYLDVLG

[8] = biological target: T2, Inhibitor of nuclear factor kappa-B kinase subunit beta (Homo sapiens) (UniProt O14920); test: IKBKB Invitrogen selectivity data (BI); details: Compound concentration 3.0 uM
T2 sequence (whole entry): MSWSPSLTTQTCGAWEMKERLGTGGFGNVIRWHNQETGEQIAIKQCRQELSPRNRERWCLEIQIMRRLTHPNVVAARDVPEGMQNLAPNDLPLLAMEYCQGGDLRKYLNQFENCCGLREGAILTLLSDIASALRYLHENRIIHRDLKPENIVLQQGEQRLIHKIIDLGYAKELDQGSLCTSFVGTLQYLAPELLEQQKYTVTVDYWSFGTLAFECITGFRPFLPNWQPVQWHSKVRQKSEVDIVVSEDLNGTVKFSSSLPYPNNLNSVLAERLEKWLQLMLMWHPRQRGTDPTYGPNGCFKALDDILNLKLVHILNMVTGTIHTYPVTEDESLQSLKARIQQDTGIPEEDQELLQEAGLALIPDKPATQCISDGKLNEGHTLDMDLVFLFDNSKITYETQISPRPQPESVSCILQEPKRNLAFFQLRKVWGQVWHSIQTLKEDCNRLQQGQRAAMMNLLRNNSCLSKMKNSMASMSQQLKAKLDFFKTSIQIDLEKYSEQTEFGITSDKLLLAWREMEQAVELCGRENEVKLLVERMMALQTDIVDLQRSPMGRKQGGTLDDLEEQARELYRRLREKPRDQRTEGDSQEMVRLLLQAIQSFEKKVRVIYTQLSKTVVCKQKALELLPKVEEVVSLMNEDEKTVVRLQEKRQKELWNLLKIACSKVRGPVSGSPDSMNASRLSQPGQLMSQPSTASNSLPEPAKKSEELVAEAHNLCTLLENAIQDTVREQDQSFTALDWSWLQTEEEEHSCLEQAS

[9] = biological target: Histamine H1 receptor (Homo sapiens) (UniProt P35367); test: H1/PYRIL/HS Cerep selectivity data (BI); details: Compound concentration 20.0 uM
Histamine H1 receptor (Homo sapiens), sequence (P35367 whole entry): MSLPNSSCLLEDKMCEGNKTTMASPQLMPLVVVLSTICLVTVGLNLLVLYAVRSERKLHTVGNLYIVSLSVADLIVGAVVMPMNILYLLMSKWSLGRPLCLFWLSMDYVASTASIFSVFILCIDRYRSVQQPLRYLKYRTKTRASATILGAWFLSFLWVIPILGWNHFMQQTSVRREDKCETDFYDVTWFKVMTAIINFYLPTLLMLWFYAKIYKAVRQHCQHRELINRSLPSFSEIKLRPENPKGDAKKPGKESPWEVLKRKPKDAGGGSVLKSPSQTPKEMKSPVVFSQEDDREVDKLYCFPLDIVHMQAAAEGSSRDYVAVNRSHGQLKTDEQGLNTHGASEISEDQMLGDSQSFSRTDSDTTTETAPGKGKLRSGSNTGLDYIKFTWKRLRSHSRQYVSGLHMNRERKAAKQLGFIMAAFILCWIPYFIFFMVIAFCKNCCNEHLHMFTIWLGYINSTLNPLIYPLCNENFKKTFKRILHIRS

[10] = biological target: T3, Mitogen-activated protein kinase kinase kinase 2 (Homo sapiens) (UniProt Q9Y2U5); test: MAP3K2 Invitrogen selectivity data (BI); details: Compound concentration 3.0 uM
T3 sequence (whole entry): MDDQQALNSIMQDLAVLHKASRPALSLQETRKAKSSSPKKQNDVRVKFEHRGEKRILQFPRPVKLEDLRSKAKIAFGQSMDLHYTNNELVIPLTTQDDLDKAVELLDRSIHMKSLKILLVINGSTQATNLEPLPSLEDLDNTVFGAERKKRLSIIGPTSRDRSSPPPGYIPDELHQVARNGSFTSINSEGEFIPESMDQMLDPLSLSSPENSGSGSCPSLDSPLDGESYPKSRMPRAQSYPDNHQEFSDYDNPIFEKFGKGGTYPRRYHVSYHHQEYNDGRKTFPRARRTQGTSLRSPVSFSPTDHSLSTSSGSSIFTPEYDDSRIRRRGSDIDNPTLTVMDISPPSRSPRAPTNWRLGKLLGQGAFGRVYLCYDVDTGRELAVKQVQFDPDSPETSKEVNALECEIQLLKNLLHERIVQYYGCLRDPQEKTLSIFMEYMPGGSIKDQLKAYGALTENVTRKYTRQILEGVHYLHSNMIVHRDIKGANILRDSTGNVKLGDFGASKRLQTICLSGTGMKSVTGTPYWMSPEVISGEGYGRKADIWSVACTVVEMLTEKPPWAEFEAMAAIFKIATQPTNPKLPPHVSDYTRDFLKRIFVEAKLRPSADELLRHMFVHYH

[11] = biological target: Substance-P receptor (Homo sapiens) (UniProt P25103); test: NK1/HUM Cerep selectivity data (BI); details: Compound concentration 20.0 uM
Substance-P receptor (Homo sapiens), sequence (P25103 whole entry): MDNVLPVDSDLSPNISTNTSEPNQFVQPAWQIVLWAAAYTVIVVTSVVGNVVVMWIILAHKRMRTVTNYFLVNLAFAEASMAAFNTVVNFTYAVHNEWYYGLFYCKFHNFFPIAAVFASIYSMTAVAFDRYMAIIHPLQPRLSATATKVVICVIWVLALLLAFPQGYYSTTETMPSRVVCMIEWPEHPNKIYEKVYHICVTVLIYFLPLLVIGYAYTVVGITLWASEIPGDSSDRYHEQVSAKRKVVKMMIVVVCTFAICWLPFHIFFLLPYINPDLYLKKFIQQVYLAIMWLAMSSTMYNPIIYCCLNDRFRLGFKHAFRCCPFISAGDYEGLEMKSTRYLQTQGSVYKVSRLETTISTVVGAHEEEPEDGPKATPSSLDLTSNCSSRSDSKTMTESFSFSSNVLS

[12] = biological target: Mitogen-activated protein kinase kinase kinase 11 (Homo sapiens) (UniProt Q16584); test: MAP3K11 Invitrogen selectivity data (BI); details: Compound concentration 3.0 uM
Mitogen-activated protein kinase kinase kinase 11 (Homo sapiens), sequence (Q16584 whole entry, looked up): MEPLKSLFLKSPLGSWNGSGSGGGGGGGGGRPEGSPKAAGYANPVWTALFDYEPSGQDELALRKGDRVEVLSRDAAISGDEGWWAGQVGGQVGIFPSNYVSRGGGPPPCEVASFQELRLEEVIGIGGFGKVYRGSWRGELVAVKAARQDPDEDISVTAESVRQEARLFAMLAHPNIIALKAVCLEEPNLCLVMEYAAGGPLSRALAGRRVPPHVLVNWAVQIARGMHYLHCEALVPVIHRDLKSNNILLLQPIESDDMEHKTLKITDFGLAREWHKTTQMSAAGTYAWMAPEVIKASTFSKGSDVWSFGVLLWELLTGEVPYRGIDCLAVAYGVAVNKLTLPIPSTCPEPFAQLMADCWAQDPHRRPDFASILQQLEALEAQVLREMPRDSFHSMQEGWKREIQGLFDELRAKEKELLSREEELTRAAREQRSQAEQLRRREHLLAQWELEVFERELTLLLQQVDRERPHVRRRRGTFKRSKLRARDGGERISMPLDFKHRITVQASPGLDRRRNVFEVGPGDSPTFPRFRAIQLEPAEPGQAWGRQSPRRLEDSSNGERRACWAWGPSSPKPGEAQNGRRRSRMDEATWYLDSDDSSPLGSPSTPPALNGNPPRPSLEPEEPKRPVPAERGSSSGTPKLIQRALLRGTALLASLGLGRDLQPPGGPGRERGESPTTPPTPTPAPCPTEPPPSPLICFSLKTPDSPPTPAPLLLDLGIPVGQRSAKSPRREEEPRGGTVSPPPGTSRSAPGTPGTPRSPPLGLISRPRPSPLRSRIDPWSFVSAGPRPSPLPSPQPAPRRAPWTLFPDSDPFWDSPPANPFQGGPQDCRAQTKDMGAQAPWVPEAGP

Measured: residual activity

CN(C)C(=O)Cn1cc(-c2nc([C@@](C)(c3ccc(-c4cnc(N)nc4)cc3)C3CC3)no2)cn1 [BI 665915]
inactive: [1] 90% | [2] 96% | [3] 141% | [4] 98% | [5] 95.5% | [6] 96.5% | [7] 95.5% | [8] 96.5% | [9] 89% | [10] 97% | [11] 95% | [12] 96%
